Measurements from patent publication US9693971B2, “Compositions for alleviating gastrointestinal tract disorders or associated systemic disorders in ruminants and camelids” (FREIE UNIVERSITÄT BERLIN, priority 2012, dated 2017).
“Also recorded” adds a separate entry of the source. Read-outs that look alike come from different tables or passages of the source.

Columns and labels:
[1] = target: TRPA1 (Homo sapiens, UniProt O75762); conditions: cited from earlier work
[2] = target: TRPV1 (Homo sapiens, UniProt Q8NER1); conditions: cited from earlier work
Chain of TRPV1 (Q8NER1 whole entry, species assumed): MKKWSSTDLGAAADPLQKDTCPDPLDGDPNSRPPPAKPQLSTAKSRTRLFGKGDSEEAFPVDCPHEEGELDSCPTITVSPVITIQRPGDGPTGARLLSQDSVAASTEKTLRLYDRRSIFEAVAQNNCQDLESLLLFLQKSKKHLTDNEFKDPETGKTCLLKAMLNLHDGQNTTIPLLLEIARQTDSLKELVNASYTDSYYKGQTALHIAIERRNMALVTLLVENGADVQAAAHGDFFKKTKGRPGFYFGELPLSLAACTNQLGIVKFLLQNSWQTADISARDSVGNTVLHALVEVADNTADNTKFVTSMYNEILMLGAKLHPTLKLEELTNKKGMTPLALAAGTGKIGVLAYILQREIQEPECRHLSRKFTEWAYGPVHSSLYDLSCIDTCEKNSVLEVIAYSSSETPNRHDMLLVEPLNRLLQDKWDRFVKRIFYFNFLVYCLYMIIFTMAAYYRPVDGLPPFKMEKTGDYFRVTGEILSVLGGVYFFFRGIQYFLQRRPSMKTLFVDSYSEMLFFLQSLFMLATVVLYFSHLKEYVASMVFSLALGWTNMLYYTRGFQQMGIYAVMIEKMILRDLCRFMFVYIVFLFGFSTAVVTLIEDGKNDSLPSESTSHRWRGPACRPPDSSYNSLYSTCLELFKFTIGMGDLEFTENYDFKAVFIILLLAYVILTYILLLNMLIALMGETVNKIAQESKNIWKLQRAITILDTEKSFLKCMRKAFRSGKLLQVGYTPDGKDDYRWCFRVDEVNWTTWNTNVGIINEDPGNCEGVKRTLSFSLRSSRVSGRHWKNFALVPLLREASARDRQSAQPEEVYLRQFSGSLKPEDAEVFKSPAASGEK

[3] = target: T1, TRPV3 (Homo sapiens, UniProt Q8NET8); conditions: cited from earlier work
T1 sequence (Q8NET8 1-790): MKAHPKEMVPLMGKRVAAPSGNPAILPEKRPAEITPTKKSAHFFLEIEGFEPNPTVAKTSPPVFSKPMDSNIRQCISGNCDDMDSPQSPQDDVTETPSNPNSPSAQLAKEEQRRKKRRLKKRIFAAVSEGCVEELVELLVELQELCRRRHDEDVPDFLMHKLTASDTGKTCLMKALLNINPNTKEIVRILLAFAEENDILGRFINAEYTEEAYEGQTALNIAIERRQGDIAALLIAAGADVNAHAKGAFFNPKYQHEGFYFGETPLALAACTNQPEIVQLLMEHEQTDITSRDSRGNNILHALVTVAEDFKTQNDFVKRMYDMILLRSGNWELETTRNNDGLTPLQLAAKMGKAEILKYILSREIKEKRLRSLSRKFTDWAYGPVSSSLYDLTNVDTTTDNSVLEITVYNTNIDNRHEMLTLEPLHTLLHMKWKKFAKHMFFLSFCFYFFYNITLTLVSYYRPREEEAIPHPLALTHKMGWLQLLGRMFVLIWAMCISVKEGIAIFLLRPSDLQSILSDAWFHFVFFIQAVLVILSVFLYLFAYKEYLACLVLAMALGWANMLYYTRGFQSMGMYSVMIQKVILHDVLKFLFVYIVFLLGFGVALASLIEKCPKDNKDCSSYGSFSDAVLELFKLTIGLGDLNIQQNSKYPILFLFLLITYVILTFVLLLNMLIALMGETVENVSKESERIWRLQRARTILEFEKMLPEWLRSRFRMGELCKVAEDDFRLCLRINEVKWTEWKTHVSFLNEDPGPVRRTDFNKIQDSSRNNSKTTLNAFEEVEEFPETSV

[4] = target: TRPM8 (Homo sapiens, UniProt Q7Z2W7); conditions: cited from earlier work
Chain of TRPM8 (Q7Z2W7 whole entry, species assumed): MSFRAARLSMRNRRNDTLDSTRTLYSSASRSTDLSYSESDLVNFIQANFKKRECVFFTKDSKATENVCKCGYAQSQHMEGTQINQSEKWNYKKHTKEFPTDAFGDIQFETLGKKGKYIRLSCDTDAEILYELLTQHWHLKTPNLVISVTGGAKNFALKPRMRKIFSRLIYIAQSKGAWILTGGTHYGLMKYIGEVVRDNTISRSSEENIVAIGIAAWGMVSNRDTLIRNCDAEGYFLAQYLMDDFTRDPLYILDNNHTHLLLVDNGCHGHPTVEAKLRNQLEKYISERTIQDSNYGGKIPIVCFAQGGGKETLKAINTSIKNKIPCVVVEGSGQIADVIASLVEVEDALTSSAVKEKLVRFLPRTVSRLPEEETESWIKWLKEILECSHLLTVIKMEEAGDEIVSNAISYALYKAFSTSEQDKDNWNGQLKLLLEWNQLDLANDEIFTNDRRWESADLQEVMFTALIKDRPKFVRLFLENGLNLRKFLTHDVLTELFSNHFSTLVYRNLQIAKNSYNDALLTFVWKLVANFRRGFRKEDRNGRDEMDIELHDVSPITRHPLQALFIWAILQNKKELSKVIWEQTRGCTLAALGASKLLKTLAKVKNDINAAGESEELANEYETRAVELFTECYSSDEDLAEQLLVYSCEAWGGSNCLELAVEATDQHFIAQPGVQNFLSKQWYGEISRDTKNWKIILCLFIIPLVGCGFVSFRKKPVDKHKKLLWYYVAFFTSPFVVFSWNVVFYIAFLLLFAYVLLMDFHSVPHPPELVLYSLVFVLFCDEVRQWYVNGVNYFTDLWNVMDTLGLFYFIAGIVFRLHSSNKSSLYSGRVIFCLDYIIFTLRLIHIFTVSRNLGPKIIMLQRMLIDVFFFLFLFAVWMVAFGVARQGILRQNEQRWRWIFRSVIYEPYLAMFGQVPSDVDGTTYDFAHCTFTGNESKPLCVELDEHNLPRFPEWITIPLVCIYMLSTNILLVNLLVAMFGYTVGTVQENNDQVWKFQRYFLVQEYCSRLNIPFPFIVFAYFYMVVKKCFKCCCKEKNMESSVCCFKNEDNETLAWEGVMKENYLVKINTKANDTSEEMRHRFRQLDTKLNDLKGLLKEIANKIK

[5] = test system: rumen epithelium from cattle; assay: Ussing chamber: ammonium-induced transepithelial short-circuit current (Isc) across isolated rumen epithelium; type: cell-based; conditions: for influence on ammonium-induced conductivity / transport across rumen epithelium (profile in words): no concentration stated
Source text: The experiments on the intact epithelium take place as already specified (Abdoun, Stumpff et al. 2005; Abdoun, Stumpff et al. 2010). The measuring techniques used are a combination of the Ussing chamber technique developed by Ussing (1949) and the microelectrode technique.
When examining epithelial transport processes with the Ussing chamber, the epithelium is installed in a special chamber, which makes it possible to rinse the two sides of the epithelium (apical: food side; basolateral: blood side) separately of each other with buffer solutions of various composition, wherein the electrophysiological parameters (current and voltage) across the epithelium are traced. Hereby, it is made possible to differentiate between the transport of an uncharged substance (e.g. ammonia, NH3) and the transport of a charged substance (e.g. ammonium, NH4^+), as the former takes place without a change in current and voltage, whereas the latter is coupled with the transfer of a charge and thus changes the transepithelial electrical parameters.
With the help of a special modification, the reaction of individual epithelia to solution changes, taking place very rapidly and smoothly, is also examined over time. Hereby, for example, the reproducibility of a pharmacological intervention on the same piece of epithelium can very well be examined. This modification of the classic Ussing chamber technique is particularly, albeit not exclusively, used for the comparative “screening” of the various substances which are subject of an aspect of the present invention.
The epithelium is horizontally clamped into a modified Ussing chamber, wherein the mucosal side faces upwards. The chamber made of plexi-glass has a cross-section surface of 0.79 cm^2, which is corrected to 1 cm^2. As a protection against damages on the edges of the epithelium, “edge damage”, a silicone ring is in each case placed between chamber and epithelium. The two resulting chambers (mucosal and serosal) are each supplied by their own perfusion system (4-channel-stand-pump, Ismatec SA). With three-way valves, an independent solution change between altogether eight solutions is possible in the two chambers. During storage, the solutions are gassed in their containers with 100% O2. To warm the solutions up to 37° C., the thin perfusion tubes run through a heat exchanger pump. The suction device (Masterflex R/S, Cole Parmer Instrument Company) present in both chambers guarantees a rapid and safe change of solution. In order to ensure that there are no solution change artefacts when adding agonists and antagonists, the substances are pipetted into the respective solution, wherein the gassing ensures a rapid mixing. In this way, pressure fluctuations or an interruption of the flow through the chamber can be safely precluded.
As in the conventional Ussing chamber technique, there are in each case two electrodes near the tissue and two electrodes distant from the tissue for measuring the transepithelial potential difference and the transepithelial current (Isc). The connections between the Ag/AgCl electrodes, which are filled with 3 M KCl, are established via agar bridges. Just as in Strecker (Strecker 2011), the measuring chamber is connected to a “voltage clamp” installation (Ussing chamber unit) in assembly with a microelectrode amplifier (both Biomedical Instruments Co., Germering). A micromanipulator (MF 500) installed above the measuring chamber offers the possibility to move the microelectrode in fine μm steps. Additionally, a microscope as well as a cold-light source are located above the apparatus.
Menthol (Sigma-Aldrich) was dissolved at a concentration of 1 mol·l^−1 in ethanol and pipetted into the used test solution containing ammonium. For an end concentration of 1 mmol·l^−1, 20 μl of this stock solution was added to 20 ml test solution; for 200 μmol·l^−1 correspondingly less. In control experiments, corresponding amounts of pure ethanol were added to the test solution.

Chain of TRPA1 (O75762 whole entry, species assumed): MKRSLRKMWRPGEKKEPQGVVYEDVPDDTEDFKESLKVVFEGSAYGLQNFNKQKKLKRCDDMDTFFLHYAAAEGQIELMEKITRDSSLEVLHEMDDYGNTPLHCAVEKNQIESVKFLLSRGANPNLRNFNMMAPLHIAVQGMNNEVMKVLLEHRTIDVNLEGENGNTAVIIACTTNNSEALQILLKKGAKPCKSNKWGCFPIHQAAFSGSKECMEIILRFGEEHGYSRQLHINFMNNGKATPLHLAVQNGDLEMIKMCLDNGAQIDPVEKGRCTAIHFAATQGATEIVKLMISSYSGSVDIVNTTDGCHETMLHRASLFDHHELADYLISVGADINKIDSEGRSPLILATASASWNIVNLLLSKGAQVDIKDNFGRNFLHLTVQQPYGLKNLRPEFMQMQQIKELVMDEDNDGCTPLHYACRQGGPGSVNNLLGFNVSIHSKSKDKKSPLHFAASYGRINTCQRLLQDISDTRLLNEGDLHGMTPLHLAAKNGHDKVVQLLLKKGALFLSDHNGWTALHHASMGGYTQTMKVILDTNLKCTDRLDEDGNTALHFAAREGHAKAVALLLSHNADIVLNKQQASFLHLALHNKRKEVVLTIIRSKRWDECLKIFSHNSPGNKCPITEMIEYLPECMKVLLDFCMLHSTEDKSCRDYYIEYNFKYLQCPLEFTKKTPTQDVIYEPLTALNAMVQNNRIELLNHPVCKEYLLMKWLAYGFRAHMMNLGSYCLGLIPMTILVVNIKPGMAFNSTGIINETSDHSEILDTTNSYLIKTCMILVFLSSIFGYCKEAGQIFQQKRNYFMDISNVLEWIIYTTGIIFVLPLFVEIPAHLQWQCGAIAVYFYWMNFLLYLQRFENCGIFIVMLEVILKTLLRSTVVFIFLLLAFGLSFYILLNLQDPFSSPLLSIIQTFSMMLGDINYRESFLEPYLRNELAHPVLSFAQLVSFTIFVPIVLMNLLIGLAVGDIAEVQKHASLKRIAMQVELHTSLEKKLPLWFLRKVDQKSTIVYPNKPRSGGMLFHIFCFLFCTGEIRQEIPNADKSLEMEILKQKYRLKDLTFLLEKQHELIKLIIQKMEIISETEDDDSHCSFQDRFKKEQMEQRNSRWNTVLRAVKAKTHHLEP

| Compound | Effect on TRPA1 [1] | Effect on TRPV1 [2] | Effect on TRPM8 [4] | further results |
| --- | --- | --- | --- | --- |
| C=CCS[S+]([O-])CC=C (stereo not drawn) [Allicin, allicin] | Agonist |  |  |  |
| C=CCN=C=S [Allyl isothiocyanate, allyl isothiocyanate] | Agonist |  |  |  |
| S=C=NCc1ccccc1 [Benzyl isothiocyanate, benzyl isothiocyanate] | Agonist |  |  |  |
| CC12CCC(CC1=O)C2(C)C (stereo not drawn) [Camphor, camphor] | Antagonist | Agonist |  | Effect on TRPV3 [3]: nonspecific |
| C=C(C)[C@@H]1CCC(C)=C[C@H]1c1c(O)cc(CCCCC)cc1O [Cannabidiol, cannabidiol] |  | Agonist |  |  |
| Oc1cc2c(cc1O)CN(C(=S)NCCc1ccc(Cl)cc1)CCC2 [Capsazepine, capsazepine] |  | Antagonist |  |  |
| Cc1ccc(C(C)C)cc1O [Carvacrol, carvacrol] | Agonist |  |  | Effect on TRPA1 ([1]; listed as carvacrol): potent TRPA1 agonists; Effect on TRPV3 [3]: Agonist |
| CC1CCC(C(C)(C)O)C(O)C1 (stereo not drawn) [Cis- and trans-p-menthane-3,8-diol, p-menthane-3,8-diol] |  |  | Agonist |  |
| CCO [Ethanol] |  |  | Antagonist |  |
| CC12CCC(CC1)C(C)(C)O2 [Eucalyptol, eucalyptol] |  |  | Agonist | Effect on TRPM8 ([4]; listed as eucalyptol): potent TRPM8 agonist |
| C=CCc1ccc(O)c(OC)c1 [Eugenol, eugenol] | Agonist | Agonist | Agonist | Effect on TRPA1 ([1]; listed as eugenol): potent TRPA1 agonists; Effect on TRPV3 [3]: nonspecific |
| CC(C)=CCC/C(C)=C/CO [Geraniol, geraniol] |  |  | Agonist | Effect on TRPM8 ([4]; listed as geraniol): potent TRPM8 agonist |
| CC(CC=O)CCCC(C)(C)O (stereo not drawn) [Hydroxyl-citronellal, hydroxyl-citronellal] |  |  | Agonist |  |
| O=C1NC(c2cccc([N+](=O)[O-])c2)=CCN1c1ccccc1O [Icilin, icilin] |  |  | Agonist |  |
| CC(C)N=C=S [Isopropyl isothiocyanate, isopropyl isothiocyanate] | Agonist |  |  |  |
| C=C(C)[C@@H]1CC[C@@H](C)C[C@H]1O [Isopulegol, isopulegol] |  |  | Agonist |  |
| CC1(C)C[C@H]2C=C(C=O)[C@]3(C=O)C[C@]3(C)[C@H]2C1 [Isovelleral, isovelleral] |  | Agonist |  |  |

| Compound | Effect on TRPA1 [1] | Effect on TRPV1 [2] | Effect on TRPM8 [4] | further results |
| --- | --- | --- | --- | --- |
| C=C(C)[C@@H]1CC=C(C)C(=O)C1 [L-carvone, 1-carvone] |  |  | Agonist |  |
| C=CC(C)(O)CCC=C(C)C (stereo not drawn) [Linalool, linalool] |  |  | Agonist |  |
| CC(C)[C@@H]1CC[C@@H](C)CC1=O [Menthone, menthone] |  |  | Agonist | Effect on TRPM8 ([4]; listed as menthone): potent TRPM8 agonist |
| CC1CCC(C(C)C)C(OC(=O)C(C)O)C1 (stereo not drawn) [Menthyl lactate, menthyl lactate] |  |  | Agonist |  |
| CN=C=S [Methyl isothiocyanate, methyl isothiocyanate] | Agonist |  |  |  |
| N [NH4^+, ammonium] |  |  |  | transepithelial current, MV ([5]; 40 mM NH4^+ replacing NMDG+, n=37, NaCl before −2.43, after washout −2.68): −25.73 μA · cm^−2; transepithelial current, Median ([5]; 40 mM NH4^+ replacing NMDG+, n=37, NaCl median −3.60): −22.32 μA · cm^−2 |
| CCCCCCCC/C=C\CCCCCCCC(=O)NCc1ccc(O)c(OC)c1 [Olvanil, olvanil] |  | Agonist |  |  |
| S=C=NCCc1ccccc1 [Phenylethyl isothiocyanate, phenylethyl isothiocyanate] | Agonist |  |  |  |
| CC1(C)CCC[C@]2(C)[C@@H](C=O)C(C=O)=CC[C@@H]12 [Polygodial, polygodial] |  | Agonist |  |  |
| C=C(C)[C@]12C[C@@H](C)[C@@]34O[C@](Cc5ccccc5)(O[C@@H]1[C@@H]3C=C(COC(=O)Cc1ccc(O)c(OC)c1)C[C@]1(O)C(=O)C(C)=C[C@@H]41)O2 [Resiniferatoxin, resiniferatoxin] |  | Agonist |  |  |
| C/C=C(/C)C(=O)O[C@H]1C(C)=C2[C@H]([C@@H]1OC(=O)CCCCCCC)[C@@](C)(OC(C)=O)C[C@H](OC(=O)CCC)[C@@]1(O)[C@H]2OC(=O)[C@@]1(C)O [Thapsigargin, thapsigargin] |  | Antagonist |  |  |
| COc1cc(CCC(C)=O)ccc1O [Vanillylacetone, vanillylacetone] |  | Agonist |  |  |
| COc1cc(CNC(=O)CCCC/C=C/C(C)C)ccc1O [capsaicin] |  | Agonist |  | influence on ammonium-induced conductivity / transport across rumen epithelium (profile in words) [5]: significantly influenced |
| O=CC=Cc1ccccc1 [cinnamaldehyde] | potent TRPA1 agonists; also recorded: Agonist |  | Antagonist | transepithelial current, MV ([5]; cinnamaldehyde (concentration not given) in 40 mM NH4^+, n=7, before −31.53, p = 0.313): −28.39 μA · cm^−2; transepithelial current, Median ([5]; cinnamaldehyde in 40 mM NH4^+, n=7, before −26.52): −24.03 μA · cm^−2; influence on ammonium-induced conductivity / transport across rumen epithelium (profile in words) [5]: inhibiting profile |
| COC(=O)c1ccccc1O [methyl salicylate] | potent TRPA1 agonists |  |  | influence on ammonium-induced conductivity / transport across rumen epithelium (profile in words) [5]: inhibiting profile; transepithelial current after addition (maximum reduction) ([5]; reduced from −25.44±1.8, n=4, not (yet) significant): −21.06±2.97 μA·cm^−2; Effect on TRPA1 ([1]; listed as Methyl salicilate): Agonist |
| COc1ccc(CCN(C)CCCC(C#N)(c2ccc(OC)c(OC)c2)C(C)C)cc1OC (stereo not drawn) [verapamil] |  |  |  | change of transepithelial current ([5]; 1 mmol·l^−1 added to solution containing ammonium): the current drops |
| evodiamine |  | Agonist |  |  |
